Experimental data taken from US7638056B2, “Treatment of sewage sludge” (Rhodia Operations, priority 2003, dated 2009).
Read-outs that look alike come from different tables or passages of the source.

Tested on: E. coli
Conditions: for time/kill response over the first 6 hours contact time / contact time to total kill: FIG. 1; for contact time to total kill: sterile sludge, 22° C., about 10^8 cells per ml
From the text: The methodology adopted to evaluate biocide performance was by Quantitative Suspension Test (QST) using sterile anaerobic digester sludge as the QST medium, back-inoculated with E. coli cultures previously isolated from the sludge. In this way, a consistent chemical environment (sterile sludge) could be used in conjunction with a defined bacterial challenge. This enables the provision of consistency between tests.
The E. coli strains used in QST had been isolated from raw-sludge samples.
QST were performed as follows: • Sterile sludge (19 ml) was dispensed into sterile, screw-cap, plastics universal bottles of nominal 30 ml capacity. • To each sample was added 0.5 ml of a washed cell suspension of E. coli prepared from a 16-hour culture incubated at 44° C. in Tryptose Soy Broth, which had been centrifuged (14500 rpm for 10 min.) and re-suspended in sterile phosphate buffer (0.2M at pH 7.2). An inoculum of 0.5 ml was sufficient to provide a final cell concentration of about 10^8 per ml in 20 ml of QST medium. • Fresh stock solutions of the candidate treatment chemicals were prepared in sterile phosphate buffer (0.2M at pH 7.2) at concentrations such that when 0.5 ml was added to the QST medium (final volume 20 ml) the desired final concentration of biocide was achieved. • The QST medium was mixed thoroughly and held at 22° C. for the duration of the test. • At intervals during the test, the sludge was well mixed and samples (1.0 ml) were removed from the QST medium and inoculated into the first tube of a dilution series containing MacConkey broth supplemented with sodium thiosulphate (5.0 g/l), to inactivate any residual biocide carried into the dilution series.
The end point was scored as the highest dilution in the series to show a change in colour from purple to yellow and to have developed turbidity.
MacConkey Broth was selected as this medium contains the pH indicator Bromocresol Purple that changes from purple to yellow as the medium becomes acidic. This is a useful indirect indicator of microbial growth (organic acid production) where this cannot be scored by the development of turbidity in an initially clear medium. Because the sludge contains suspended solids the first 2 tubes of the dilution series instantaneously develop turbidity on the addition of the sludge. This precludes using turbidity alone as an indicator of microbial growth.

N#CC(Br)(Br)C(N)=O [DBNPA, dibromo-nitrilo-propionamide, reference compound]
log reduction in numbers (500 mg/l active ingredient, after 48 hours, FIG. 3): 2.5 log

tetrakis(hydroxymethyl) phosphonium sulphate [Phosphonium Salt]
time/kill response over the first 6 hours contact time (250 mg/l): fairly flat
contact time to total kill (250 mg/l): ≤ 48 h
time/kill response over the first 6 hours contact time (500 mg/l): fairly flat
contact time to total kill (500 mg/l): ≤ 48 h
time/kill response over the first 6 hours contact time (1000 mg/l): more progressive
contact time to total kill (1000 mg/l): ≤ 24 h
anti-microbial performance (Phosphonium Salt compared with DBNPA) (equal active-ingredient concentration of 500 mg/l, FIG. 3): superior
